According to patent publication US11007206B2, “Cyclic boronic acid ester derivatives and therapeutic uses thereof” (Melinta Subsidiary Corp., priority 2012, dated 2021):
Like-named read-outs stand apart in the source and are kept apart here.

Key:
KPC-producing strains = assay: Time-kill assays of Biapenem with Compound I (Example 4); assay type: cell-based, Enterobacteriaceae; conditions: KPC-producing strains (Biapenem MICs of 16-32 ug/ml)
Protocol: The evaluation of Compound I in combination with the carbapenem antibiotic Biapenem against multi-drug resistant strains of Enterobacteriaceae, including those producing serine carbapenemases were also conducted. Antibiotic potentiation activity of Compound I was studied in checkerboard MIC experiments and time-kill assays. The MICs of Biapenem were determined alone or in combination with Compound I added at fixed concentrations between 0.5 and 16 ug/ml) against characterized and engineered isolates producing various beta-lactamases, as well as in geographically diverse panels of multi-drug resistant strains of Enterobacteriaceae (including strains that express the most relevant beta-lactamases).

[1] = Single-dose pharmacokinetics of Compound I across all preclinical species, summary statements incl. coadministration of Biapenem (Example 5); assay type: in vivo
Protocol: (§1) Example 5 provides the single-dose pharmacokinetic studies of Compound I inpreclinical species, including intraperitoneal administration to Swiss-Webster mice and intravaneous administration to Sprague-Dawley rats, Beagle dogs, and Cynomologus monkeys.
(§2) Intravaneous doses of Compound I were administered as 30-minute infusions. The pharmacokinetics of Compound I were also studied with coadministration of the carbapenem, Biapenem. Compound I concentrations were determined using an LC-MS detection method.

[2] = Single-dose pharmacokinetics of Compound I, intravenous 30-minute infusion in Beagle dogs (Example 5); assay type: in vivo; conditions: Dog; for AUC / Cmax / half-life: Beagle, in vivo
Protocol: as §1, §2

[3] = Plasma pharmacokinetics of Compound I after single intraperitoneal dose in Swiss-Webster mice (Example 1); assay type: in vivo; conditions: for concentration at 0.08 h: samples m.p. 1.x = 1st time point (0.08 h)
Protocol: Example 1 provides a summary of three pharmacokinetic studies Compound I conducted in Swiss-webster mice. The pharmacokinetics of 5 mg/kg, 15 mg/kg and 50 mg/kg of Compound I via the intraperitoneal route were discussed.
Compound I was prepared using the method described in the U.S. Publication 2012/0040932 A1. 100 mg of Compound I was dissolved in 30% 1N NaOH to ˜pH 5.0 as a stock solution. Compound I was further diluted in 0.9% saline to achieve target concentrations.
The specifications for animals used on this study were as follows: • Species: Mouse • Strain: CFW (Swiss) • Gender: Female • Source: Harlan Laboratories (Livermore, Calif.) • Number of Animals: 33 for each dose • Body Weight Range: 18-22 g at the start of the study
After acclimation, mice were administered a single intraperitoneal dose of Compound I at 5, 15, and 50 mg/kg. Groups of three mice were sacrificed at 0.08, 0.16, 0.25, 0.33, 0.5, 0.75, 1.0, 2.0, 3.0, and 4.0 h after dosing. Blood samples (one sample per animal) were collected by cardiac puncture in a heparin containing tube. Blood samples were centrifuged within 5 min of collection at 12000 g for 5 min to obtain plasma. The plasma samples were stored on −80° C. until analyzed.
Compound I standard curves were prepared in plasma from 0.1 to 100 μg/mL. 50 μl aliquots of sample were placed in 1.5 mL microcentrifuge tubes. 20 μl of Compound II (10 μg/mL) was added as internal standard to each sample or standard. 20 μl of 30% trichloroacetic acid was then added to each sample or standard. The samples were mixed using a vortex mixer centrifuged for 10 min at 15,000 RPM using a tabletop centrifuge. The supernatant (approx. […]) was removed and added to 100 μl of water in a 96-well plate. The samples were mixed again using a vortex mixer. 10 μl of each sample was injected onto an HPLC-MS for quantification.
The HPLC-MS conditions for plasma analysis are as follows: • Column: Phenomenex Fusion-RP or equivalent reversed-phase column, 5 um, 50×2 mm. • Flow rate: 0.6 mL/min. • Mobile phase A: 0.1% formic acid in water. • Mobile phase B: 0.1% formic acid in acetonitrile. • Gradient: 5-60% B in 1.5 min. • Mass spectrometer: Negative ion mode with electrospray ionization. • MS/MS: Compound I-Q1-m/e=296, Q3-m/e=234. • Compound II-Q1-m/e=331, Q3-m/e=201.
Plasma concentrations were fit using a one compartment IV infusion model (WinNonlinVersion 5.3, Pharsight Corp, and Mountain View, Calif.).

[4] = Swiss-Webster mice, plasma, 5 mg/kg intraperitoneal
[5] = Swiss-Webster mice, plasma, 15 mg/kg intraperitoneal
[6] = Swiss-Webster mice, plasma, 50 mg/kg intraperitoneal
[7] = female, CFW (Swiss-Webster), mouse, ip, Swiss-Webster mice, plasma, 5 mg/kg intraperitoneal
[8] = female, CFW (Swiss-Webster), mouse, ip, Swiss-Webster mice, plasma, 15 mg/kg intraperitoneal
[9] = female, CFW (Swiss-Webster), mouse, ip, Swiss-Webster mice, plasma, 50 mg/kg intraperitoneal

In the case of `O=C(O)C[C@@H]1CC[C@H](NC(=O)Cc2cccs2)B(O)O1` [Compound I], the “Time-kill: effect of the addition of Compound I to Biapenem” value (KPC-producing strains) is reported as “significant bactericidal synergism”, the Pharmacokinetic properties ([1]; across all species (mice, rats, dogs, monkeys), single dose) is reported as “linear and favorable pharmacokinetic properties” and the “Dose dependence of clearance and volume of distribution” value ([1]; across preclinical species, single dose) is reported as “independent of dose”. For the same compound, the “PK drug interactions between Compound I and Biapenem” value ([1]; coadministration of Biapenem) was “No PK drug interactions”, the AUC ([2]; 2 mg/kg IV) was 6130 ± 650 ng·h/mL and the Cmax ([2]; 2 mg/kg IV) was 6490 ± 310 ng/mL. The half-life ([2]; 2 mg/kg IV) was 39.6 ± 3.6 min, the AUC ([2]; 6 mg/kg IV) was 18400 ± 2360 ng·h/mL and the Cmax ([2]; 6 mg/kg IV) was 19600 ± 1420 ng/mL. For the same compound, the half-life ([2]; 6 mg/kg IV) was 42.6 ± 5.4 min, the AUC ([2]; 20 mg/kg IV) was 73600 ± 5380 ng·h/mL and the Cmax ([2]; 20 mg/kg IV) was 66800 ± 6160 ng/mL. The half-life ([2]; 20 mg/kg IV) was 91.8 ± 43.8 min, the “CL or CL/F” value ([2]; 2 mg/kg IV) was 5.5 ± 0.5 mL/min/kg and the “CL or CL/F” value ([2]; 6 mg/kg IV) was 5.5 ± 0.67 mL/min/kg. The “CL or CL/F” value ([2]; 20 mg/kg IV) was 4.5 ± 0.33 mL/min/kg, the Linearity of pharmacokinetics ([3]; Swiss-Webster mice, dose range of 5 to 50 mg/kg intraperitoneal) was “linear PK” and the AUC [3, 4] was 3100 ng·h/mL. It also gave a Cl [3, 4] of 26.8 mL/min/kg, an AUC [3, 5] of 8300 ng·h/mL and a Cl [3, 5] of 30 mL/min/kg. For the same compound, the AUC [3, 6] was 31400 ng·h/mL, the Cl [3, 6] was 26.7 mL/min/kg and the Cmax [3, 7] was 8260 ng/mL. The half-life [3, 7] was 9.6 min, the Cmax [3, 8] was 19500 ng/mL and the half-life [3, 8] was 12 min. It also gave a Cmax [3, 9] of 67100 ng/mL, a half-life [3, 9] of 15 min and a concentration at 0.08 h ([3]; female, CFW (Swiss-Webster), mouse, plasma, ip, 5 mg/kg, mouse plasma, 5 mg/kg intraperitoneal, individual animals, read-out: Calc. Conc. (plasma concentration)) of 5580 ng/mL. For the same compound, the concentration at 0.5 h ([3]; female, CFW (Swiss-Webster), mouse, plasma, ip, 5 mg/kg, mouse plasma, 5 mg/kg intraperitoneal, samples m.p. 5.x = 5th time point (0.5 h), individual animals, read-out: Calc. Conc. (plasma concentration)) was 1550 ng/mL, the concentration at 4 h ([3]; female, CFW (Swiss-Webster), mouse, plasma, ip, 5 mg/kg, mouse plasma, 5 mg/kg intraperitoneal, samples m.p. 10.x = 10th time point (4.0 h), individual animals, read-out: Calc. Conc. (plasma concentration)) was 3.71 ng/mL and the concentration at 0.08 h ([3]; female, CFW (Swiss-Webster), mouse, plasma, ip, 15 mg/kg, mouse plasma, 15 mg/kg intraperitoneal, individual animals, read-out: Calc. Conc. (plasma concentration)) was 16700 ng/mL. It also gave a concentration at 0.16 h ([3]; female, CFW (Swiss-Webster), mouse, plasma, ip, 15 mg/kg, mouse plasma, 15 mg/kg intraperitoneal, samples m.p. 2.x = 2nd time point (0.16 h), individual animals, read-out: Calc. Conc. (plasma concentration)) of 15500 ng/mL and a concentration at 2 h ([3]; female, CFW (Swiss-Webster), mouse, plasma, ip, 15 mg/kg, mouse plasma, 15 mg/kg intraperitoneal, samples m.p. 8.x = 8th time point (2.0 h), individual animals, read-out: Calc. Conc. (plasma concentration)) of 126 ng/mL.
